Source: patent US7521540B2, “CYR61 compositions and methods” (Munin Corporation, priority 1996, dated 2009)

Experiments:
[1] = test system: HUVE cells; test: Thymidine incorporation (mitogen potentiation), HUVE cells; assay type: cell-based, human
Protocol: Human umbilical vein endothelial cells were plated essentially as described above for 3T3 cells and exposed to a constant amount of murine Cyr61; controls received no Cyr61. Different plates were then exposed to different levels of bFGF, comprising a series of bFGF concentrations ranging from 0-10 ng/ml. […] At 1 ng/ml bFGF, however, HUVE cells increased their thymidine incorporation in the presence of bFGF to 6×10^2 cpm; in the presence of 1 ng/ml bFGF and murine Cyr61, HUVE cells incorporated 1.3×10^3 cpm. At 10 ng/ml bFGF, cells exposed to bFGF incorporated about 1.8×10^3 cpm thymidine; cells receiving 10 ng/ml bFGF and Cyr61 incorporated approximately 6.1×10^3 cpm.
The capacity of murine Cyr61 to potentiate the mitogenic activity of bFGF was verified by a thymidine incorporation assay involving HUVE cells and various combinations of bFGF, Cyr61, and anti-Cyr61 antibodies. Cells were plated and grown as described above. The following combinations of supplements (final plate concentrations noted parenthetically) were then pre-incubated for 1 hour before addition to individual plates: 1) pre-immune antiserum (3%); 2) bFGF (15 ng/ml) and pre-immune antiserum (3%); 3) pre-immune antiserum (3%) and Cyr61 (4 μg/ml); 4) pre-immune antiserum (3%), Cyr61 (4 μg/ml), and bFGF (15 ng/ml); 5) anti-Cyr61 antiserum (3%); 6) anti-Cyr61 antiserum and bFGF (15 ng/ml); 7) anti-Cyr61 antiserum (3%) and Cyr61 (4 μg/ml); and 8) anti-Cyr61 antiserum (3%), Cyr61 (4 μg/ml), and bFGF (15 ng/ml).
DNA synthesis for HUVE cells and NIH 3T3 fibroblasts was measured by thymidine incorporation as described previously (Kireeva et al., [1996]) with minor modifications. HUVE cells were grown in 24-well plates to a subconfluent state, serum-starved for 24 hours and treated with F12K medium containing 10% fetal bovine serum (FBS), 1 μCi/ml [^3H]-thymidine and 10 ng/ml basic Fibroblast Growth Factor (bFGF) (Gibco-BRL, Inc.) with various concentrations of Cyr61 and Fisp12 as indicated. […] Thymidine incorporation into the trichloroacetic acid-insoluble fraction was determined after 24 hour incubation. […]

[2] = test system: cornea; test: Cornea assay for angiogenic factors; assay type: in vivo, rat; settings: FGF 0.15 μM (six animals); Cyr61 1 μg/ml (seven animals)
Text: Another assay for modulators of angiogenesis is an in vivo assay for assessing the effect of a suspected modulator in the presence of an ECM signaling molecule-related biomaterial, such as Cyr61, on angiogenesis is the Cornea Assay. The Cornea Assay takes advantage of the absence of blood vessels in the cornea, which in the presence of an angiogenic factor, results in the detectable development of capillaries extending from the sclera into the cornea. Friedlander et al., Science 270:1500-1502 (1995). This ingrowth of new blood vessels from the sclera can be microscopically monitored. Further, the visually determined rate of migration can be used to assess changes in the rate of angiogenesis. […] Subsequently, eyes containing implants are visually observed for growth of the readily visible blood vessels within the eye. […]
Although rats of various sizes can be used in the cornea assay, a preferred size for the rats is 150-200 g/animal. […] Once the cornea pocket is made, the spatula is removed and the distance between the limbus and base of the pocket is measured to make sure the separation is at least about 1 mm. […]
Following surgery, animals are examined daily for seven days with the aid of a stereomicroscope to check for inflammation and responses. […] During this seven day period, animals are monitored for implant position and corneal exudate. […]

With “bFGF: Growth factor used as positive control [reference compound]” the “thymidine incorporation, baseline” value ([1]; 0-0.1 ng/ml bFGF, presence or absence of Cyr61, 72 hours) was “approximately 4×10^2 cpm”, the “thymidine incorporation, bFGF alone” value ([1]; 1 ng/ml bFGF) was 6×10^2 cpm and the “thymidine incorporation, bFGF alone” value ([1]; 10 ng/ml bFGF) was “about 1.8×10^3 cpm”. For the same substance, the “eyes showing blood vessel growth after seven days” value [2] was “all six”.
